Results published in patent US20250179047A1, “5-[7-(3,4-DIHYDRO-1H-ISOQUINOLINE-2-CARBONYL)-1,2,3,4 TETRAHYDROISOQUINOLIN-6-YL]-1H-PYRROLE-3-CARBOXAMIDE DERIVATIVES, PHARMACEUTICAL COMPOSITIONS CONTAINING THEM AND THEIR USES AS PRO-APOPTOTIC AGENTS” (LES LABORATOIRES SERVIER, priority 2022, published 2025).

Assays:
KMS-12-PE Bcl-2 WT = experiment: In vitro cytotoxicity CellTiter-Glo 48 h, KMS-12-PE Bcl-2 WT; format: cell-based; details: Homo sapiens, KMS-12-PE, C50 = concentration needed to reach 50% of the cellular viability
In short: (§1)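 Transduce KMS-12-PE with Bcl-2 WT or G101V lentivirus, then FACS-sort RFP-positive cells. Add compounds in an 11-point dilution series and incubate 48 h at 37 °C. Measure ATP-based luminescence with CellTiter-Glo and derive C50 (50% viability).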

BCL2 D103Y = BCL2 D103Y (Homo sapiens, UniProt P10415, D103Y); experiment: TR-FRET competitive binding assay, BCL2 D103Y; details: Ki determined from IC50, read-out: TR_FRET EKI_Bcl2 D103Y
In short: (§2)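 Competitive TR-FRET displacement of fluorescein-PUMA peptide (2 or 20 nM) from 0.5 nM terbium-labelled N-terminal Halo-fusion BCL2 (1-207, wild type or mutant) or BCLXL (2-196), expressed in E. coli. Buffer 50 mM Hepes pH 7.5, 150 mM NaCl, 5% DMSO; 2 h at 23°C. 520/495 nm ratio fitted over 11 points for IC50, converted to Ki.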

BCL2 G101V [1] = target: BCL2 G101V (Homo sapiens, UniProt P10415, G101V); experiment: TR-FRET competitive binding assay, BCL2 G101V; details: BCL2 G101V; Ki determined from IC50; read-out: TR_FRET EKI_Bcl2 G101V
In short: as §2

BCL2 G101V [2] = experiment: TR-FRET competitive binding assay, BCL2 G101V; set-up: species or system human; details: ratio Ki BCL2 G101V / Ki BCL2 WT
In short: as §2

BCL2 F104I = BCL2 F104I (Homo sapiens, UniProt P10415, F104I); experiment: TR-FRET competitive binding assay, BCL2 F104I; details: Ki determined from IC50, read-out: TR_FRET EKI_Bcl2 F104I
In short: as §2

BCL2 WT = BCL2 WT (Homo sapiens (Human), UniProt P10415); experiment: TR-FRET competitive binding assay, BCL2 WT; details: Ki determined from IC50, read-out: TR_FRET EKI_Bcl2 WT
In short: as §2

platelets = experiment: Platelet depletion in SCID mice; format: in vivo; details: 25 mg/kg IV bolus, vs control group; for Platelet loss (%) 6 h: 6 h after dosing; for Platelet loss (%) 24 h: 24 h after dosing
Description: (§3) Pharmacokinetic (PK) and platelet toxicity were investigated in SCID mice. Compounds were administered at 25 mg/kg by IV bolus, and formulated in PEG/Ethanol/NaCl 0.9% (40/10/50 v/v/v).
(§4) Blood samples (3 animals/time point and 3 time points/animal) were collected over 24 h after dosing: 0.05 h, 0.5 h, 1 h, 3 h, 6 h and 24 h for PK and 6 h and 24 h for platelets.
(§5) PK samples were analyzed by liquid chromatography using tandem mass spectrometry detection (LC-MS/MS) and platelet count (109/L) was measured using an hematology analyzer. Percentage of platelet loss was calculated at both time points (T+6 h and 24 h) as compared to a control group of 6 animals. PK parameters (Cinf and AUC24, which correspond to the concentration at the end of bolus administration and the area under curve over 24 h, respectively) were also determined using a non-compartmental analysis.

BCLXL WT = BCLXL WT (Homo sapiens (Human), UniProt Q07817); experiment: TR-FRET competitive binding assay, BCLXL WT; details: for Ki: BCLXL WT, Ki determined from IC50, read-out: TR_FRET EKI BclxL; for TR_FRET EKI BCLxL/WT selectivty ratio: ratio Ki BCLxL / Ki BCL2 WT
In short: as §2

[3] = Pharmacokinetics in SCID mice; format: in vivo; details: 25 mg/kg IV bolus; for PK parameters Cinf: concentration at the end of bolus administration; for AUC: mouse, blood, area under curve over 24 h, read-out: PK parameters AUC24
Description: as §3, §4, §5

BCL2 D111A = BCL2 D111A (Homo sapiens, UniProt P10415, D111A); experiment: TR-FRET competitive binding assay, BCL2 D111A; details: Ki determined from IC50, read-out: TR_FRET EKI_Bcl2 D111A
In short: as §2

KMS-12-PE Bcl-2 G101V = experiment: In vitro cytotoxicity CellTiter-Glo 48 h, KMS-12-PE Bcl-2 G101V; format: cell-based; details: for Ratio (G101V/WT): C50 KMS-12-PE Bcl-2 G101V over C50 KMS-12-PE Bcl-2 WT; for IC50: Homo sapiens, KMS-12-PE, 48 h, CellTiter-Glo, C50 = concentration needed to reach 50% of the cellular viability
In short: as §1

Sequence of BCLXL WT (Q07817 other isoform, or with tags, fused parts or gaps): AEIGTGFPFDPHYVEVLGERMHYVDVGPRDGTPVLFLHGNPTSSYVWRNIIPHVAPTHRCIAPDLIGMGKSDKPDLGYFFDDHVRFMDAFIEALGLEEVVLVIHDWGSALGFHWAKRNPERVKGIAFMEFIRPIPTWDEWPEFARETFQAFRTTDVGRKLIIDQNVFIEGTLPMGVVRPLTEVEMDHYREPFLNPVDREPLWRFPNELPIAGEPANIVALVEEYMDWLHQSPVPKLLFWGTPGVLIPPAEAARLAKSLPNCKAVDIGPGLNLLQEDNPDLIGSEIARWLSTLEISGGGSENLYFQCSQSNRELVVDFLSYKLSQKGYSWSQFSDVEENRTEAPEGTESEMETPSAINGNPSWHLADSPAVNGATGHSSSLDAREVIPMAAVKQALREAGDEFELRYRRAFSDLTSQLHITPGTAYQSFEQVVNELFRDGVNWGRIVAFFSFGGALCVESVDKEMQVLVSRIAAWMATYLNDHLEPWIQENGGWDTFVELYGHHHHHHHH

Row | Structure (SMILES) | IC50 (KMS-12-PE Bcl-2 WT) [µM] | Ki (BCL2 D103Y) [nM] | Ki (BCL2 G101V [1]) [nM] | TR_FRET EKI G101V/WT selectivty ratio (BCL2 G101V [2]) | Ki (BCL2 F104I) [nM] | Ki (BCL2 WT) [nM] | Platelet loss (%) 6 h (platelets) [%] | Platelet loss (%) 24 h (platelets) [%] | Ki (BCLXL WT) [nM] | TR_FRET EKI BCLxL/WT selectivty ratio (BCLXL WT) | PK parameters Cinf [3] [µM] | AUC [3] [µM·h] | Ki (BCL2 D111A) [nM] | Ratio (G101V/WT) (KMS-12-PE Bcl-2 G101V) | IC50 (KMS-12-PE Bcl-2 G101V) [µM]
1 | Cc1c(N(C(=O)c2cc(-c3cc4c(cc3C(=O)N3Cc5ccccc5C[C@H]3C)CN(C(=O)Cc3ccc(C5CCN(CCF)CC5)c(F)c3)CC4)n(C)c2C)c2ccc(O)cc2)cc(C#N)n1C [Example 28, N-(5-cyano-1,2-dimethylpyrrol-3-yl)-5-[2-(2-{3-fluoro-4-[1-(2-fluoroethyl)piperidin-4-yl]phenyl}acetyl)-7-{[(3R)-3-methyl-3,4-dihydro-1H-isoquinolin-2-yl]carbonyl}-3,4-dihydro-1H-isoquinolin-6-yl]-N-(4-hydroxyphenyl)-1,2-dimethylpyrrole-3-carboxamide] | 0.0099 | 0.34 | 1.2 | 4.8 | 6.47 | 0.25 | 23.2 | 15.2 | 5.6 | 22.4 | 18.2 | 38.3 | 0.59 | 6.51 | 0.0643
2 | COc1ccc(CC(=O)N2CCc3cc(-c4cc(C(=O)N(c5ccc(O)cc5)c5cc(C#N)n(C)c5C)c(C)n4C)c(C(=O)N4Cc5ccccc5C[C@H]4CN4CCCCC4)cc3C2)c(F)c1 [Example 33, N-(5-cyano-1,2-dimethylpyrrol-3-yl)-5-{2-[2-(2-fluoro-4-methoxyphenyl)acetyl]-7-{[(3S)-3-(piperidin-1-ylmethyl)-3,4-dihydro-1H-isoquinolin-2-yl]carbonyl}-3,4-dihydro-1H-isoquinolin-6-yl}-N-(4-hydroxyphenyl)-1,2-dimethylpyrrole-3-carboxamide] | 0.0054 | 0.22 | 0.5 | 3.3 | 0.5 | 0.15 | 33.5 | 22.5 | 3.7 | 24.7 | 8.4 | 12.6 | 0.1 | 9.09 | 0.0491
3 | Cc1c(N(C(=O)c2cc(-c3cc4c(cc3C(=O)N3Cc5ccccc5C[C@H]3CN3CCCCC3)CN(C(=O)Cc3ccc(OCCC5CCOCC5)cc3F)CC4)n(C)c2C)c2ccc(O)cc2)cc(C#N)n1C [Example 34, N-(5-cyano-1,2-dimethylpyrrol-3-yl)-5-[2-(2-{2-fluoro-4-[2-(oxan-4-yl)ethoxy]phenyl}acetyl)-7-{[(3S)-3-(piperidin-1-ylmethyl)-3,4-dihydro-1H-isoquinolin-2-yl]carbonyl}-3,4-dihydro-1H-isoquinolin-6-yl]-N-(4-hydroxyphenyl)-1,2-dimethylpyrrole-3-carboxamide] | 0.0052 | 0.52 | 0.9 | 2.6 | 0.27 | 0.34 | 33.7 | 18.2 | 5.3 | 15.6 | 8.2 | 9.7 | 0.2 | 5.29 | 0.0275
4 | Cc1c(N(C(=O)c2cc(-c3cc4c(cc3C(=O)N3Cc5ccccc5C[C@H]3C)CN(C(=O)Cc3ccc(OCCN5C[C@@H](C)O[C@@H](C)C5)cc3)CC4)n(C)c2C)c2ccc(O)cc2)cc(C#N)n1C [Example 39, N-(5-cyano-1,2-dimethyl-1H-pyrrol-3-yl)-5-{2-[2-(4-{2-[cis-2,6-dimethylmorpholin-4-yl]ethoxy}phenyl)acetyl]-7-[(3R)-3-methyl-1,2,3,4-tetrahydroisoquinoline-2-carbonyl]-1,2,3,4-tetrahydroisoquinolin-6-yl}-N-(4-hydroxyphenyl)-1,2-dimethyl-1H-pyrrole-3-carboxamide] | 0.0056 | 0.71 | 0.7 | 3.5 | 0.46 | 0.2 | 26.9 | 20.2 | 2.3 | 11.5 | 26.5 | 26.7 | 0.18 | 4.07 | 0.023
5 | Cc1c(N(C(=O)c2cc(-c3cc4c(cc3C(=O)N3Cc5ccccc5C[C@H]3CN3CCOCC3)CN(C(=O)Cc3ccc(OCCC5CCOCC5)cc3F)CC4)n(C)c2C)c2ccc(O)cc2)cc(C#N)n1C [Example 54, N-(5-cyano-1,2-dimethyl-pyrrol-3-yl)-5-[2-[2-[2-fluoro-4-(2-tetrahydropyran-4-ylethoxy)phenyl]acetyl]-7-[(3S)-3-(morpholinomethyl)-3,4-dihydro-1H-isoquinoline-2-carbonyl]-3,4-dihydro-1H-isoquinolin-6-yl]-N-(4-hydroxyphenyl)-1,2-dimethyl-pyrrole-3-carboxamide] | 0.0057 | 0.11 | 0.3 | 2.7 | 0.52 | 0.1 | 28.6 | 22.5 | 2.3 | 24.0 | 11.4 | 9.2 | 0.4 | 4.23 | 0.024
6 | Cc1c(N(C(=O)c2cc(-c3cc4c(cc3C(=O)N3Cc5ccccc5C[C@H]3C)CN(C(=O)Cc3ccc(OCCN5CCO[C@H](C)C5)cc3)CC4)n(C)c2C)c2ccc(O)cc2)cc(C#N)n1C [Example 56, N-(5-cyano-1,2-dimethyl-1H-pyrrol-3-yl)-N-(4-hydroxyphenyl)-1,2-dimethyl-5-{7-[(3R)-3-methyl-1,2,3,4-tetrahydroisoquinoline-2-carbonyl]-2-(2-{4-[2-((2R)-2-methylmorpholin-4-yl)ethoxy]phenyl}acetyl)-1,2,3,4-tetrahydroisoquinolin-6-yl}-1H-pyrrole-3-carboxamide] | 0.0048 | 0.19 | 0.2 | 2.8 | 0.28 | 0.06 | 43.5 | 26.9 | 1.6 | 26.7 | 48.5 | 30.5 | 0.17 | 4.21 | 0.0201
